Columns and labels:
Experiment in all cases: biochemical
Parameters in all cases: KinomeScan competition binding panel (DiscoveRx), percent of control at 1 uM
Details in all cases: read-out: Percent Control
EPHB2 = EPHB2 (Homo sapiens, UniProt P29323)
Outline: (§1)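 KinomeScan technology used to profile binding across a panel of 456 kinases and mutants.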

LRRK2(G2019S) = LRRK2(G2019S) (Homo sapiens, UniProt Q5S007, G2019S)
Outline: as §1

CDKL1 = CDKL1 (Homo sapiens, UniProt Q00532)
Outline: as §1

PCTK3 = target: T1, PCTK3 (Homo sapiens, UniProt Q07002)
T1 construct: gene CDK18
Outline: as §1

PKAC-beta = target: T2, PKAC-beta (Homo sapiens, UniProt P22694)
T2 construct: gene PRKACB
Outline: as §1

BRAF = BRAF (Homo sapiens, UniProt P15056)
Outline: as §1

EPHA2 = EPHA2 (Homo sapiens, UniProt P29317)
Outline: as §1

MARK2 = MARK2 (Homo sapiens, UniProt Q7KZI7)
Outline: as §1

CAMK4 = CAMK4 (Homo sapiens, UniProt Q16566)
Outline: as §1

CSNK1E = CSNK1E (Homo sapiens, UniProt P49674)
Outline: as §1

[1] = target: T3, ABL1(Q252H)-nonphosphorylated (Homo sapiens, UniProt P00519, Q252H)
T3 construct: nonphosphorylated
Outline: as §1

CDC2L1 = target: T4, CDC2L1 (Homo sapiens, UniProt P21127)
T4 construct: gene CDK11B
Outline: as §1

CSF1R-autoinhibited = CSF1R-autoinhibited (Homo sapiens, UniProt P07333)
Outline: as §1

FER = FER (Homo sapiens, UniProt P16591)
Outline: as §1

BUB1 = BUB1 (Homo sapiens, UniProt O43683)
Outline: as §1

JNK2 = target: T5, JNK2 (Homo sapiens, UniProt P45984)
T5 construct: gene MAPK9
Outline: as §1

ACVR1B = ACVR1B (Homo sapiens, UniProt P36896)
Outline: as §1

DDR1 = DDR1 (Homo sapiens, UniProt Q08345)
Outline: as §1

DRAK1 = target: T6, DRAK1 (Homo sapiens, UniProt Q9UEE5)
T6 construct: gene STK17A
Outline: as §1

STK39 = STK39 (Homo sapiens, UniProt Q9UEW8)
Outline: as §1

FGFR2 = FGFR2 (Homo sapiens, UniProt P21802)
Outline: as §1

ERN1 = ERN1 (Homo sapiens, UniProt O75460)
Chain of ERN1 (O75460 whole entry): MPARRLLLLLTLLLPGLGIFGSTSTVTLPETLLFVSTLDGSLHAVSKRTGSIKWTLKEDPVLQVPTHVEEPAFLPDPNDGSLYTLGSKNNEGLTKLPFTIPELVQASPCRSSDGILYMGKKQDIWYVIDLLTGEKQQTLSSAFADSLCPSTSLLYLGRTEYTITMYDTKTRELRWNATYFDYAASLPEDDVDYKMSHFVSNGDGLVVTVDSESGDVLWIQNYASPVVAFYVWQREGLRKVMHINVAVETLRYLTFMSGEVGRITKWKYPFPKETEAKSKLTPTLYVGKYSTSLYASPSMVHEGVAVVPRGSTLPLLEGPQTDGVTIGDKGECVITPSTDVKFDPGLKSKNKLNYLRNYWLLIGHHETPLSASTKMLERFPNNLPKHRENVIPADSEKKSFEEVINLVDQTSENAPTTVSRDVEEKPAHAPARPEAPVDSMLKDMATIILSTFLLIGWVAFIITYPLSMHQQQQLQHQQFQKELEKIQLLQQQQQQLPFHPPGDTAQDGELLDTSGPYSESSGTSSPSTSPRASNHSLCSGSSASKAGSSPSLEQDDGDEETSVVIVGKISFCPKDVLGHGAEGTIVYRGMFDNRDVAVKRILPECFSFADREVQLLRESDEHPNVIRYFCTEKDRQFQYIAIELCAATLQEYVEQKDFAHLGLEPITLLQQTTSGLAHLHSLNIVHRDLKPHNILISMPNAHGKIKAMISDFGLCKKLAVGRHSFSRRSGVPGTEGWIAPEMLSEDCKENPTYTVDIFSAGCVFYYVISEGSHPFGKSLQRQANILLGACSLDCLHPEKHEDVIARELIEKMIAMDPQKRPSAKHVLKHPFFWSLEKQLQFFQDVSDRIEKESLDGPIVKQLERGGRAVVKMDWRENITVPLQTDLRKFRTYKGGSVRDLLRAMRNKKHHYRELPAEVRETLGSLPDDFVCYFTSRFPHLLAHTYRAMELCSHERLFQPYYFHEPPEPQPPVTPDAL
Outline: as §1

[2] = target: T7, RSK1(Kin.Dom.2-C-terminal) (Homo sapiens, UniProt Q15418)
T7 construct: gene RPS6KA1; Kin.Dom.2-C-terminal
Outline: as §1

ERK5 = target: T8, ERK5 (Homo sapiens, UniProt Q13164)
T8 construct: gene MAPK7
Outline: as §1

p38-delta = target: T9, p38-delta (Homo sapiens, UniProt O15264)
T9 construct: gene MAPK13
Outline: as §1

Chain of LRRK2(G2019S) (Q5S007 whole entry G2019S): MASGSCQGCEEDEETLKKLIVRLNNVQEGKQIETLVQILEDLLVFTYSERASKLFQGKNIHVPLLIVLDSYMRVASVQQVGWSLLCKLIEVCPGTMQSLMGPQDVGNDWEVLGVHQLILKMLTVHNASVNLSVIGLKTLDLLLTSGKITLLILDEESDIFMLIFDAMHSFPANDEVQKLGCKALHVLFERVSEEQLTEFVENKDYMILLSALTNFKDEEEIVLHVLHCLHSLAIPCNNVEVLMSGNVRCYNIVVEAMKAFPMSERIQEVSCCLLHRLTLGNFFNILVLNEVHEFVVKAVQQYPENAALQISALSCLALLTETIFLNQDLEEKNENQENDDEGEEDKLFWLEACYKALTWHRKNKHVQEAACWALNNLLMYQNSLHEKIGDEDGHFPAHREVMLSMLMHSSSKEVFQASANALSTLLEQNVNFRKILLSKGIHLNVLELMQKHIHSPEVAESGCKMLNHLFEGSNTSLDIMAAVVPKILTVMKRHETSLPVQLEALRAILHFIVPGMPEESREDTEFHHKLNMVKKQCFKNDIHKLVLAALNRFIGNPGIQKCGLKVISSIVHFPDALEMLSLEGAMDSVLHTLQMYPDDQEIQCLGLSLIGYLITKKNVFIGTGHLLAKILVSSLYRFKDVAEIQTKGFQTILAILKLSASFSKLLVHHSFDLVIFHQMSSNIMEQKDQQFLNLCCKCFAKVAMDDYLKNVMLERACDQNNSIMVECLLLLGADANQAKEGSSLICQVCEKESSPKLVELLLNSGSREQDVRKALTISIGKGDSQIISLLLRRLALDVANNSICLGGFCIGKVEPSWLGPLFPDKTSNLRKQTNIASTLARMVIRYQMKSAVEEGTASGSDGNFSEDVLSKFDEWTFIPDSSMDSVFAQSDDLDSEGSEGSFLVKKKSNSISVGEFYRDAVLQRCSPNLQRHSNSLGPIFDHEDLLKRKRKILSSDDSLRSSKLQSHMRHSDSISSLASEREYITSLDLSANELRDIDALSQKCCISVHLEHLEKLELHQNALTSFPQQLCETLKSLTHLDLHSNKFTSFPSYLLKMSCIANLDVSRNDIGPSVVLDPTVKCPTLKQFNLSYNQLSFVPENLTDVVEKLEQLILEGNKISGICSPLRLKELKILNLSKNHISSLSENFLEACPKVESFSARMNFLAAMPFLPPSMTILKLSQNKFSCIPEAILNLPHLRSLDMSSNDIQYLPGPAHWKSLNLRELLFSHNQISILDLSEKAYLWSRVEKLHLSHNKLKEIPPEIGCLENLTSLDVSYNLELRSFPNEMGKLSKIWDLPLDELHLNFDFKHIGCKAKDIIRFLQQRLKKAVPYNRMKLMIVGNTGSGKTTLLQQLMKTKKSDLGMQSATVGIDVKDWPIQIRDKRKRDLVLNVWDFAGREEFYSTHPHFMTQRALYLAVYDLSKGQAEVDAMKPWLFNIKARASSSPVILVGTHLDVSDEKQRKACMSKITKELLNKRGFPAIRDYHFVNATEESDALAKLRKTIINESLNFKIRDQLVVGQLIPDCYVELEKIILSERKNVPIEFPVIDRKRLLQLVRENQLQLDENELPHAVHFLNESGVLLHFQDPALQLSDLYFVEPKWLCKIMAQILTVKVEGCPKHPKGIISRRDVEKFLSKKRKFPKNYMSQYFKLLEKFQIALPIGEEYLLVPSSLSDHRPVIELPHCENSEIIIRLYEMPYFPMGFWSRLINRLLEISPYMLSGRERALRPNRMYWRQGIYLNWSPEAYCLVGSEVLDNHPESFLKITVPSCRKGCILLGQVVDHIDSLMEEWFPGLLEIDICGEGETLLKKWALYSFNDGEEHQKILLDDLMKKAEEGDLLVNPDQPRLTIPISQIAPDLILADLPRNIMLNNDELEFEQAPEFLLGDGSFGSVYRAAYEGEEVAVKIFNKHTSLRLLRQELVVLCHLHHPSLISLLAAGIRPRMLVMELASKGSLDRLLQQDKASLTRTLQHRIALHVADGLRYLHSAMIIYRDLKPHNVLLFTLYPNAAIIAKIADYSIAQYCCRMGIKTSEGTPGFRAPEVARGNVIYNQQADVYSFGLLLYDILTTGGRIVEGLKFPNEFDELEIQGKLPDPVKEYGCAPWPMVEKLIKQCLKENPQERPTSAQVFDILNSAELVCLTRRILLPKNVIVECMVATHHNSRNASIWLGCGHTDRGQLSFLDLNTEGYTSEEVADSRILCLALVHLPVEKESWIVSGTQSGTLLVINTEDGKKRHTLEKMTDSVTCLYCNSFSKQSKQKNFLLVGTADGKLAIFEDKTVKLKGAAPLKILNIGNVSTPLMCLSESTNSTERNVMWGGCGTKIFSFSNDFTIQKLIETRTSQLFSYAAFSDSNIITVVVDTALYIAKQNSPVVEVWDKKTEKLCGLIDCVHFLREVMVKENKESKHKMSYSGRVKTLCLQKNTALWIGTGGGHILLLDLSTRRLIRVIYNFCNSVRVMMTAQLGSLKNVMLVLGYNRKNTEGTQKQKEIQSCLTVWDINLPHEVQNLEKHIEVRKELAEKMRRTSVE
Chain of CDKL1 (Q00532 whole entry): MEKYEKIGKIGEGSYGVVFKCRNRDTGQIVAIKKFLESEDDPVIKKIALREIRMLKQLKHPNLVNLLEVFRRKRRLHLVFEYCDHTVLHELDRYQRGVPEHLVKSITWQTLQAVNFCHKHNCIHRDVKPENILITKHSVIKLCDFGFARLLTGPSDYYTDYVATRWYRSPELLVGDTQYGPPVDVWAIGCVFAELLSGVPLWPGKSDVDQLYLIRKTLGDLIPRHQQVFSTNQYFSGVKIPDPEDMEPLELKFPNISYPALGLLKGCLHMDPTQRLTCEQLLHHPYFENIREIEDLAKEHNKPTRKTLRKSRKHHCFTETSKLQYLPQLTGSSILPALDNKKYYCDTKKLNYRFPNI
Chain of EPHB2 (P29323 whole entry): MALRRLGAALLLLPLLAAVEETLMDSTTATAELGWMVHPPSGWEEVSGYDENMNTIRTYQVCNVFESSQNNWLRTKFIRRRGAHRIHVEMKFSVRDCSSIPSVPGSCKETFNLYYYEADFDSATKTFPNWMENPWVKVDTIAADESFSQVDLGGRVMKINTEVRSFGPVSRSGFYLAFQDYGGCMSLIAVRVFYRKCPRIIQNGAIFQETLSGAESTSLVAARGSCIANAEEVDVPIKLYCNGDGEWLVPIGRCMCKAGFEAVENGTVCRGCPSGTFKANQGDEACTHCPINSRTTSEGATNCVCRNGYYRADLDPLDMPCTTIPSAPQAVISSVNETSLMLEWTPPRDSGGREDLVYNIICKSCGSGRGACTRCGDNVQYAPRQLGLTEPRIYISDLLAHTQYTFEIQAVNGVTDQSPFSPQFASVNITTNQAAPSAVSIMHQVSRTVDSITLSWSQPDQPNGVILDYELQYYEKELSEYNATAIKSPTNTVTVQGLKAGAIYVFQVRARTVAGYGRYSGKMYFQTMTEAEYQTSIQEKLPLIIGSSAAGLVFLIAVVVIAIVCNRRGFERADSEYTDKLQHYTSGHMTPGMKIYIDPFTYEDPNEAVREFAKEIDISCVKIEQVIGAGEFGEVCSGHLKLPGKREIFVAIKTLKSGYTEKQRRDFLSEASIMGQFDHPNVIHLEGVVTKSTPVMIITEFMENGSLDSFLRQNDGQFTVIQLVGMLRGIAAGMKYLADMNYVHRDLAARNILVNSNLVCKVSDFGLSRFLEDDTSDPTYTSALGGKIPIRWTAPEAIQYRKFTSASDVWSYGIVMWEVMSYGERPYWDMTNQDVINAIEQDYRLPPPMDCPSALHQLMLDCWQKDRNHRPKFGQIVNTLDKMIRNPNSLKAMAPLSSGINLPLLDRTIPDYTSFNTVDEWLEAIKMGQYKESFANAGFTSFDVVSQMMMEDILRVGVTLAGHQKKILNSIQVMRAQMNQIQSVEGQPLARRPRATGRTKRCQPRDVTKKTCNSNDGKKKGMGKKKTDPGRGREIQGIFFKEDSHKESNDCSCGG

Compound C=CC(=O)Nc1cc(-n2c(=O)ccc3cnc4ccc(-n5cccn5)cc4c32)ccc1C [CHMFL-BTK-11] has a remaining binding at 1 µM (EPHB2) of 89%, a remaining binding at 1 µM (LRRK2(G2019S)) of 95% and a remaining binding at 1 µM (CDKL1) of 93%. It also gave a remaining binding at 1 µM (PCTK3) of 90%, a remaining binding at 1 µM (PKAC-beta) of 100% and a remaining binding at 1 µM (BRAF) of 93%. It also gave a remaining binding at 1 µM (EPHA2) of 88%, a remaining binding at 1 µM (MARK2) of 92% and a remaining binding at 1 µM (CAMK4) of 91%. For the same compound, the remaining binding at 1 µM (CSNK1E) was 100%, the remaining binding at 1 µM [1] was 100% and the remaining binding at 1 µM (CDC2L1) was 100%. It also gave a remaining binding at 1 µM (CSF1R-autoinhibited) of 70%, a remaining binding at 1 µM (FER) of 98% and a remaining binding at 1 µM (BUB1) of 83%. The remaining binding at 1 µM (JNK2) was 100%, the remaining binding at 1 µM (ACVR1B) was 100% and the remaining binding at 1 µM (DDR1) was 100%. For the same compound, the remaining binding at 1 µM (DRAK1) was 96%, the remaining binding at 1 µM (STK39) was 72% and the remaining binding at 1 µM (FGFR2) was 88%. It also gave a remaining binding at 1 µM (ERN1) of 76%, a remaining binding at 1 µM [2] of 100% and a remaining binding at 1 µM (ERK5) of 100%. It also gave a remaining binding at 1 µM (p38-delta) of 96%.

Reference: PMC5428509, “Irreversible inhibition of BTK kinase by a novel highly selective inhibitor CHMFL-BTK-11 suppresses inflammatory response in rheumatoid arthritis model” (Scientific Reports, 2017)
